Data: patent US20060110594A1, “Polymer-coated substrates for binding biomolecules and methods of making and using thereof” (priority 2004, published 2006)
Values joined by “and” are separate entries in the source; they are usually repeats but may differ in a detail not shown here. Equal values may be shown once. Read-outs that look alike come from different tables or passages of the source. Values belong to the molecule of their own block, whether it stands above or below them.

Legend:
streptavidin = streptavidin (Streptomyces avidinii, UniProt P22629); assay: Small molecule binding to streptavidin immobilized on EMA, Corning LID; settings: for signal-to-noise ratio: binding to streptavidin immobilized on EMA
Protocol: Streptavidin was immobilized on an EMA coated LID microplate by incubating the wells with a solution of 25 ug/mL of the protein in an acetate buffer (20 mM, pH 5.5) for 15 minutes. As negative controls, additional wells were blocked with ethanolamine. The binding of the small molecule fluorescein-biotin (“Fl-biotin”, 831 Da) was monitored as a function of time in the LID instrument. A 100 nM solution of Fl-biotin in PBS was introduced into each well and allowed to bind for several minutes. […] The data have been corrected for bulk index of refraction effects by subtracting out the response from the negative control well. […] This experiment was repeated in each column of the plate with similar results.

human serum albumin = human serum albumin (Homo sapiens, UniProt P02768); assay: Drug binding to human serum albumin immobilized on EMA, Corning LID
Lys-D-Ala-D-Ala [1] = assay: Vancomycin competitive inhibition on EMA coated microplate, Corning LID; format: binding; settings: in the presence of excess (250 uM) Lys-D-Ala-D-Ala
Protocol: (§1) To test the specificity of the interaction, a competitive binding assay was performed in which the surface was incubated with a fixed (5 μM) concentration of vancomycin in the presence of varying concentrations of the peptide Lys-D-Ala-D-Ala. […] Similar competitive inhibition experiments were performed on a Corning LID microplate coated with EMA (see FIG. 7).

Lys-D-Ala-D-Ala [2] = assay: Vancomycin binding to immobilized Lys-D-Ala-D-Ala, SPR (Biacore 2000); settings: for Total Signal: 5 μM vancomycin; for Nonspecific Binding: 5 uM vancomycin + 500 μM DADA; for Kd: Scatchard analysis, vancomycin 10, 5, 2.5, 1.25 μM
Protocol: (Vancomycin is an antibiotic that binds to the C-terminal D-Ala-D-Ala group of Gram-positive bacterial cell wall precursors and inhibits cell wall synthesis.) Experiments were performed on the Biacore 2000 SPR instrument using gold sensor chips modified with either EMA or poly(triethylene glycol-co-maleic anhydride) (“PEG-MA”); for comparison, experiments were also performed on Biacore's CM5 surface.

Lys-D-Ala-D-Ala [3] = assay: Vancomycin competitive inhibition binding assay, SPR
Protocol: as §1

Lys-D-Ala-D-Ala [4] = settings: measured in solution (ref 12); read-out: Kd reported in the literature; cited from earlier work
[5] = isoelectric point, listed property; cited from earlier work
[6] = Streptavidin/BSA binding to biotin immobilized on MAMVE and SMA, Biacore SPR; settings: streptavidin 1 μM; biotin-groups immobilized on MAMVE; BSA as control
From the text: Biacore SPR detection was used for these experiments in which biotin was immobilized on the surfaces by injecting solutions of 5-(biotinamido)pentylamine over each surface. […] Non-specific binding of proteins to surfaces such as those presenting hydrophobic aromatic groups is well documented; the inertness of surfaces presenting —OCH3 groups to non-specific adsorption has also been observed (13).

[7] = Streptavidin binding to immobilized biotin on EMA coated microplate, Corning LID; settings: streptavidin 100 nM in PBS, six wells
Protocol: The performance of EMA in a small molecule/protein binding assay was tested using a biotin/streptavidin model system and Corning LID detection. Biotin was immobilized in rows A-G of a Corning LID microplate by incubating each well with 75 uL of a 10 uM solution of biotin-peo-amine in borate buffer (150 mM, pH 9) for 30 minutes; row H was reacted with ethanolamine (200 mM in borate buffer, pH 9) to serve as a negative control. The plate was docked in the LID instrument and the binding of streptavidin (100 nM in phosphate buffered saline (PBS)) was monitored as a function of time as shown in FIG. 4A.

Sequence of human serum albumin (P02768 25-609): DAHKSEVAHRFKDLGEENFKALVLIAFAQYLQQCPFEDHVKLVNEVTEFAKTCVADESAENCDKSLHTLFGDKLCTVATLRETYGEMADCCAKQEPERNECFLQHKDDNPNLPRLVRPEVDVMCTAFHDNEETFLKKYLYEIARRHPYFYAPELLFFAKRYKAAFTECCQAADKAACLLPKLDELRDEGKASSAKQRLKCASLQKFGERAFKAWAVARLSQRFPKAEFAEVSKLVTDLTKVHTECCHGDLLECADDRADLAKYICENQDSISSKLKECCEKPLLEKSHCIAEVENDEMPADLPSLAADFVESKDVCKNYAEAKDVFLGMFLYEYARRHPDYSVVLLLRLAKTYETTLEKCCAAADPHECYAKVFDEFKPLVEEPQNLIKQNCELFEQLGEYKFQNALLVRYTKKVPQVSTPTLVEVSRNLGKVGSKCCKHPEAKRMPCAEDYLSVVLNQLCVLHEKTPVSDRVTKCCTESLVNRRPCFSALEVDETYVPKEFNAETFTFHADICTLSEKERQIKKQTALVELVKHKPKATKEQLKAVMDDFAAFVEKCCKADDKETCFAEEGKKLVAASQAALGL

Molecule: O=C(O)CCCC[C@@H]1SC[C@@H]2NC(=O)N[C@@H]21 [biotin]
- response for binding to immobilized streptavidin (streptavidin; EMA coated LID microplate, Fl-biotin 100 nM in PBS, relative to negative control well): ~5 pm
- signal-to-noise ratio (streptavidin): ~50

Molecule: C[C@H]1O[C@@H](O[C@H]2[C@@H](O)C[C@H](O[C@H]3[C@@H](O)C[C@H](O[C@H]4CC[C@@]5(C)[C@H](CC[C@@H]6[C@@H]5CC[C@]5(C)[C@@H](C7=CC(=O)OC7)CC[C@]65O)C4)O[C@@H]3C)O[C@@H]2C)C[C@H](O)[C@@H]1O [digitoxin]
- lowest concentration successfully detected (human serum albumin): 6 µM

Molecule: O=C(CCCCCNC(=O)CCCC[C@@H]1SC[C@@H]2NC(=O)N[C@@H]21)NCCCCCNC(=S)Nc1ccc2c(c1)C(=O)OC21c2ccc(O)cc2Oc2cc(O)ccc21 [fluorescein-biotin]
- signal-to-noise ratio (streptavidin): > 200

Molecule: CN[C@H](CC(C)C)C(=O)N[C@H]1C(=O)N[C@@H](CC(N)=O)C(=O)N[C@H]2C(=O)N[C@H]3C(=O)N[C@H](C(=O)N[C@H](C(=O)O)c4cc(O)cc(O)c4-c4cc3ccc4O)[C@H](O)c3ccc(c(Cl)c3)Oc3cc2cc(c3O[C@@H]2O[C@H](CO)[C@@H](O)[C@H](O)[C@H]2O[C@H]2C[C@](C)(N)[C@H](O)[C@H](C)O2)Oc2ccc(cc2Cl)[C@H]1O [vancomycin]
- reduction of vancomycin binding signal (Lys-D-Ala-D-Ala [1]): 83%
- Total Signal (Lys-D-Ala-D-Ala [2]; CM5 surface): 1251 RU
- Nonspecific Binding (Lys-D-Ala-D-Ala [2]; CM5 surface): 3 RU
- Kd (Lys-D-Ala-D-Ala [2]; CM5 surface): 280 nM and 270 nM
- Total Signal (Lys-D-Ala-D-Ala [2]; EMA surface): 2538 RU
- Nonspecific Binding (Lys-D-Ala-D-Ala [2]; EMA surface): 290 RU
- Kd (Lys-D-Ala-D-Ala [2]; EMA surface): 340 nM
- Total Signal (Lys-D-Ala-D-Ala [2]; PEG-MA surface): 2006 RU
- Nonspecific Binding (Lys-D-Ala-D-Ala [2]; PEG-MA surface): 128 RU
- Kd (Lys-D-Ala-D-Ala [2]; PEG-MA surface): 1300 nM
- amount of nonspecific binding, lower on PEG-MA relative to EMA (Lys-D-Ala-D-Ala [3]; PEG-MA relative to EMA): ~2 ×
- binding specificity (Lys-D-Ala-D-Ala [3]; both maleic anhydride copolymer surfaces tested (EMA, PEG-MA), 5 μM vancomycin): > 90%
- Kd (Lys-D-Ala-D-Ala [4]): ~1000 nM

Molecule: Lysozyme: protein immobilized on EMA, 14 kDa
- pI [5]: 9.5

- specificity of binding [6]: specific
- average response [7]: 465 pm
Molecule: streptavidin: protein binding biotin; 60 kDa
- pI [5]: 5
